The text below walks through data of patent publication US12590062B2, “PD-1/PD-L1 inhibitors” (Gilead Sciences, Inc., priority 2017, dated 2026).

A word on the IC50: it is the point on the concentration scale where inhibition reaches its midpoint. What is called AC50 is the concentration at which the activity in the assay is half-maximal. As a reminder, the EC50 is the concentration at which the effect is half-maximal.

Structures are written as SMILES.

The target of one assay is PD-1/PD-L1 (Homo sapiens, UniProt Q9NZQ7). In words: PD-1/PD-L1 biochemical protein-protein interaction assay (ALPHA). Type of assay: binding. The following applies: 0.3 nM His tagged PD-L1, 2.5 nM biotinylated Fc-PD-1, 60 minutes at 25° C., read-out: IC50 PD-L1-PD-1 Alpha IC50-mono PD-L1-fcP-D1. The method, boiled down: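 Compounds are tested for blocking the PD-1/PD-L1 extracellular-domain interaction using an ALPHA bead assay, in which inhibition lowers the luminescent signal. Reactions run 60 min at 25° C with 0.3 nM His-PD-L1 and 2.5 nM biotinylated Fc-PD-1. IC50 values come from four-parameter fits.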
PD-1/PD-L1, sequence (Q9NZQ7 19-238 limits assumed): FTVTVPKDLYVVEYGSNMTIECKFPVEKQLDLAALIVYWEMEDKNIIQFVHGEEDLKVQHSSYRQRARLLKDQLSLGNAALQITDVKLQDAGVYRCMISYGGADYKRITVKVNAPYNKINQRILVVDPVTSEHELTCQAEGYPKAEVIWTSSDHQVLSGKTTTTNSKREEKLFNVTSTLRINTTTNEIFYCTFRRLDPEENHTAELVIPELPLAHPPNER

A further assay addresses T1, PD-L1 (Homo sapiens, UniProt Q9NZQ7).
T1 construct: determine if they can specifically dimerize the extracellular domains of PD-L1
Put plainly: PD-L1/PD-L1 dimerization biochemical protein-protein interaction assay (ALPHA). The assay is classed as binding. As to conditions: compound-induced PD-L1 dimerization, head prints '1 nM' (0.5 nM His-tagged PD-L1 and 0.5 nM FLAG-tagged PD-L1), read-out: AC50 PDL1 Dimer Alpha 1 nM. The method, boiled down:
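ALPHA proximity assay of compound-induced dimerization of 0.5 nM His-tagged and 0.5 nM FLAG-tagged PD-L1 extracellular domains in Hepes pH 7.4 buffer, 2 h at 25 °C. Anti-His acceptor then anti-FLAG donor beads, 60 min each; AC50 from four-parameter fit.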

The target in a further assay is T2, PD-1/PD-L1 interaction (Homo sapiens, UniProt Q9NZQ7).
T2 construct: expressed in transfected cells; host or cells: CHO cells (aAPC-PD-L1) co-cultured with Jurkat cells overexpressing PD-1 and an NFAT-luciferase reporter
T2 sequence (Q9NZQ7 19-290): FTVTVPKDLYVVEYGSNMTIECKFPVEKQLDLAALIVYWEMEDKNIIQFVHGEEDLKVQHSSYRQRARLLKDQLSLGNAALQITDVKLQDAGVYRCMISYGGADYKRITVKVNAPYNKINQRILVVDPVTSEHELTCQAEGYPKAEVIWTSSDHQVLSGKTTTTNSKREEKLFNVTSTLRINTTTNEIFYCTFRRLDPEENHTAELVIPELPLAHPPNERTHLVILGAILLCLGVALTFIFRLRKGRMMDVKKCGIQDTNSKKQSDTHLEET
Put plainly: PD-1/PD-L1 NFAT reporter co-culture assay. Type of assay: cell-based. As to conditions: Jurkat PD-1 NFAT-luciferase cells co-cultured with aAPC-PD-L1 CHO cells, 6 hrs at 37° C.; read-out: EC50 NFAT Luciferase. In a few lines: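 Luminescence (ONE-Glo) after 6 h, 37 °C co-culture reports NFAT-luciferase in PD-1 Jurkat cells, which PD-1/PD-L1 engagement suppresses. Partner cells: CHO expressing anti-CD3 and PD-L1. EC50 from four-parameter dose-response fit.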

T1 sequence (Q9NZQ7 19-238 limits assumed): as the sequence (Q9NZQ7 19-238 limits assumed) above
T1 sequence (Q9NZQ7 19-238 limits assumed): as above

For the compound `COc1nc(-c2cccc(-c3cccc4c3CC[C@@H]4Oc3nc(OC)c(CN[C@@](C)(CO)C(=O)O)cc3Br)c2Br)ccc1CNC[C@@H]1CCC(=O)N1` [Example 697], at PD-1/PD-L1, the IC50 stood at 0.068 nM. For the same compound, the AC50 at PD-L1 worked out at 51 nM. In addition, the EC50 at PD-1/PD-L1 interaction is 50 nM.
For the compound `COc1nc(-c2cccc(-c3cccc4c3CC[C@@H]4Oc3nc(OC)c(CNC[C@@H]4CCC(=O)N4)cc3Br)c2Br)ccc1CNC[C@@H]1CCC(=O)N1` [Example 698], on PD-1/PD-L1, the IC50 amounted to 0.704 nM. Moreover, the AC50 at PD-L1 was found to be 111 nM. At PD-1/PD-L1 interaction, the EC50 stood at 152 nM.
For the compound `COc1nc(-c2cccc(-c3cccc4c3CC[C@@H]4Oc3nc(OCc4cncc(C#N)c4)c(CN[C@@](C)(CO)C(=O)O)cc3Br)c2Br)ccc1CNC[C@@H]1CCC(=O)N1` [Example 699], the IC50 at PD-1/PD-L1 was 0.12 nM. Further, the AC50 on PD-L1 is 24.7 nM. Further, on PD-1/PD-L1 interaction, the EC50 was 136 nM.
Take `COc1nc(-c2cccc(-c3cccc4c3CC[C@@H]4Oc3nc(OCc4cncc(C#N)c4)c(CN[C@@](C)(CO)C(=O)O)cc3Cl)c2Br)ccc1CNC[C@@H]1CCC(=O)N1` [Example 700]: on PD-1/PD-L1, the IC50 was found to be 0.064 nM. In addition, on PD-L1, the AC50 is 22.1 nM. In addition, at PD-1/PD-L1 interaction, the EC50 was 43 nM.
On the same counts, the results for `COc1nc(-c2cccc(-c3cccc4c3CC[C@@H]4Oc3nc(OCc4cncc(C#N)c4)c(CNC(C)(C)C(=O)O)cc3Cl)c2Br)ccc1C1=NCCN1` [Example 701] are 0.818 nM, 332 nM and 3050 nM.
For the compound `COc1nc(-c2cccc(-c3cccc4c3CC[C@@H]4Oc3nc(OCc4cncc(C#N)c4)c(CN[C@@](C)(CO)C(=O)O)cc3Cl)c2Br)ccc1C1=NCCN1` [Example 702], at PD-1/PD-L1, the IC50 came out at 0.316 nM. For the same compound, the concentration at half-maximal activity (AC50) on PD-L1 is 332 nM. Also, the EC50 at PD-1/PD-L1 interaction is 1310 nM.
Consider `COc1nc(O[C@H]2CCc3c(-c4cccc(-c5cnc(CN6CC(CO)C6)c(OC)n5)c4Cl)cccc32)c(Cl)cc1CN1CC[C@H](C(=O)O)C1` [Example 703], for which the IC50 on PD-1/PD-L1 was found to be 0.064 nM. Moreover, the half-maximal activity concentration (AC50) on PD-L1 turned out to be 24.2 nM. Moreover, on PD-1/PD-L1 interaction, the EC50 was 11 nM.
Take `COc1nc(-c2cccc(-c3cccc4c3CC[C@@H]4Oc3nc(OC)c(CN4CC[C@H](C(=O)O)C4)cc3Cl)c2Cl)ccc1CN1CC(CO)C1` [Example 704]: the IC50 at PD-1/PD-L1 came out at 0.064 nM. Moreover, the AC50 at PD-L1 was 66.8 nM. Besides, on PD-1/PD-L1 interaction, the EC50 is 11 nM.
In the case of `COc1nc(O[C@H]2CCc3c(-c4cccc(-c5cnc(CN6CC(C)(O)C6)c(OC)n5)c4Cl)cccc32)c(Cl)cc1CN1CC[C@H](C(=O)O)C1` [Example 705], on PD-1/PD-L1, the IC50 was 0.064 nM. The AC50 at PD-L1 amounted to 60.6 nM. For the same compound, the EC50 at PD-1/PD-L1 interaction came to 20 nM.
For `COc1nc(-c2cccc(-c3cccc4c3CC[C@@H]4Oc3nc(OC)c(CN4CC[C@H](C(=O)O)C4)cc3Cl)c2Cl)ccc1CN1CC(C)(O)C1` [Example 706], the IC50 at PD-1/PD-L1 was found to be 0.064 nM. The AC50 at PD-L1 came to 42.8 nM. In addition, the EC50 on PD-1/PD-L1 interaction is 14 nM.
Consider `COc1nc(O[C@H]2CCc3c(-c4cccc(-c5cnc(CN6CC(C)(CO)C6)c(OC)n5)c4Cl)cccc32)c(Cl)cc1CN1CC[C@H](C(=O)O)C1` [Example 707], for which the IC50 on PD-1/PD-L1 amounted to 0.064 nM. The AC50 at PD-L1 worked out at 39.3 nM. Besides, the EC50 on PD-1/PD-L1 interaction amounted to 31 nM.
For `COc1nc(-c2cccc(-c3cccc4c3CC[C@@H]4Oc3nc(OC)c(CN4CC[C@H](C(=O)O)C4)cc3Cl)c2Cl)ccc1CN1CC(C)(CO)C1` [Example 708], the IC50 at PD-1/PD-L1 was 0.064 nM. Moreover, the AC50 on PD-L1 turned out to be 38.6 nM. The EC50 at PD-1/PD-L1 interaction was found to be 34 nM.
For `COc1nc(O[C@H]2CCc3c(-c4cccc(-c5cnc(CN6CC(O)C6)c(OC)n5)c4Cl)cccc32)c(Cl)cc1CN1CC[C@H](C(=O)O)C1` [Example 709], the IC50 on PD-1/PD-L1 came to 0.064 nM. For the same compound, the AC50 on PD-L1 stood at 49.4 nM. On PD-1/PD-L1 interaction, the EC50 was 21 nM.
`COc1nc(-c2cccc(-c3cccc4c3CC[C@@H]4Oc3nc(OC)c(CN4CC[C@H](C(=O)O)C4)cc3Cl)c2Cl)ccc1CN1CC(O)C1` [Example 710]: at PD-1/PD-L1, the IC50 turned out to be 0.064 nM. For the same compound, the AC50 on PD-L1 came to 54.6 nM. In addition, the EC50 on PD-1/PD-L1 interaction is 22 nM.
For the compound `COc1nc(O[C@H]2CCc3c(-c4cccc(-c5cnc(CNC[C@H]6C[C@H](O)C6)c(OC)n5)c4Cl)cccc32)c(Cl)cc1CN1CC[C@H](C(=O)O)C1` [Example 711], the IC50 on PD-1/PD-L1 was 0.069 nM. In addition, the AC50 at PD-L1 came to 103 nM. The EC50 on PD-1/PD-L1 interaction was 69 nM.
As for `COc1nc(-c2cccc(-c3cccc4c3CC[C@@H]4Oc3nc(OC)c(CN4CC[C@H](C(=O)O)C4)cc3Cl)c2Cl)ccc1CNC[C@H]1C[C@H](O)C1` [Example 712], at PD-1/PD-L1, the IC50 was determined as 0.064 nM. In addition, at PD-L1, the AC50 was determined as 33 nM. At PD-1/PD-L1 interaction, the EC50 stood at 12 nM.
For the compound `COc1nc(-c2cccc(-c3cccc4c3CC[C@@H]4Oc3nc(OC)c(CN4CC(C(=O)O)C4)cc3Cl)c2Cl)ccc1CN1CC2(CCC(=O)N2)C1` [Example 713], on PD-1/PD-L1, the IC50 worked out at 0.064 nM. In addition, on PD-L1, the AC50 was 69.4 nM. Further, at PD-1/PD-L1 interaction, the EC50 is 25 nM.
As to `COc1nc(-c2cccc(-c3cccc4c3CC[C@@H]4Oc3nc(OC)c(CN4CC[C@H](C(=O)O)C4)cc3Cl)c2Cl)ccc1CN1CC2(CCC(=O)N2)C1` [Example 714], on PD-1/PD-L1, the IC50 worked out at 0.064 nM. For the same compound, the AC50 on PD-L1 came out at 66.3 nM. Further, the EC50 at PD-1/PD-L1 interaction was determined as 26 nM.
For the compound `COc1nc(O[C@H]2CCc3c(-c4cccc(-c5ccc(CNC[C@@H]6CCC(=O)N6)cc5)c4Cl)cccc32)c(Cl)cc1CN1CCCC[C@H]1C(=O)O` [Example 715], the IC50 at PD-1/PD-L1 worked out at 0.064 nM. Besides, the AC50 on PD-L1 came to 7.89 nM. Besides, the EC50 at PD-1/PD-L1 interaction amounted to 35 nM.
Consider `COc1nc(O[C@H]2CCc3c(-c4cccc(-c5ccc(CNC[C@@H]6CCC(=O)N6)cc5)c4Cl)cccc32)c(Cl)cc1CN[C@H]1CCC[C@H]1O` [Example 716], for which the IC50 at PD-1/PD-L1 turned out to be 0.403 nM. Further, the AC50 at PD-L1 was found to be 15.1 nM. On PD-1/PD-L1 interaction, the EC50 stood at 343 nM.
On the same counts, the results for `COc1nc(O[C@H]2CCc3c(-c4cccc(-c5ccc(CNC[C@@H]6CCC(=O)N6)cc5)c4Cl)cccc32)c(Cl)cc1CN[C@@H]1CCC[C@@H]1O` [Example 717] are 0.572 nM, 16.2 nM and 484 nM.
In the case of `COc1nc(O[C@H]2CCc3c(-c4cccc(-c5ccc(CNC[C@@H]6CCC(=O)N6)cc5)c4Cl)cccc32)c(Cl)cc1CN1CC[C@H](O)C1` [Example 718], the IC50 at PD-1/PD-L1 was found to be 0.242 nM. In addition, the AC50 at PD-L1 amounted to 70.4 nM. Moreover, the EC50 on PD-1/PD-L1 interaction came out at 704 nM.
With `COc1nc(O[C@H]2CCc3c(-c4cccc(-c5ccc(CNC[C@@H]6CCC(=O)N6)cc5)c4Cl)cccc32)c(Cl)cc1CN1CCC[C@H](C(=O)O)C1` [Example 719], the IC50 at PD-1/PD-L1 was determined as 0.064 nM. The half-maximal activity concentration (AC50) on PD-L1 was found to be 32.7 nM. For the same compound, the EC50 at PD-1/PD-L1 interaction stood at 110 nM.
On to `COc1nc(O[C@H]2CCc3c(-c4cccc(-c5ccc(CNC[C@@H]6CCC(=O)N6)cc5)c4Cl)cccc32)c(Cl)cc1CN1CC(O)C1` [Example 720], for which the IC50 on PD-1/PD-L1 amounted to 0.262 nM. For the same compound, the AC50 on PD-L1 stood at 94.9 nM. Besides, the EC50 at PD-1/PD-L1 interaction came out at 558 nM.
On the same counts, the results for `COc1nc(O[C@H]2CCc3c(-c4cccc(-c5ccc(CNC[C@@H]6CCC(=O)N6)cc5)c4Cl)cccc32)c(Cl)cc1CN1CC(C(=O)O)C1` [Example 721] are 0.064 nM, 19 nM and 14 nM.
With `COc1nc(O[C@H]2CCc3c(-c4cccc(-c5ccc(CNC[C@@H]6CCC(=O)N6)cc5)c4Cl)cccc32)c(Cl)cc1CN1CC[C@@H](C(=O)O)C1` [Example 722], the IC50 on PD-1/PD-L1 was 0.064 nM. In addition, the AC50 at PD-L1 was found to be 16 nM. Further, at PD-1/PD-L1 interaction, the EC50 amounted to 47 nM.
